From US20070275935A1, “Estratriene Derivatives” (priority 2003, published 2007)

What was measured:
[1] = test system: GM-CSF production by Human Airway Smooth Muscle Cells; test: Interleukin-1α-mediated GM-CSF production by HASM cells (ELISA); assay type: cell-based; conditions: for HASM - GM-CSF: inhibition of interleukin-1α (1 ng/ml)-mediated GM-CSF production, concentration not given, * not defined
[2] = test system: Pulmonary fibroblasts; test: bFGF-induced proliferation of human pulmonary fibroblasts; assay type: cell-based; conditions: for pFib - bFGF: inhibition of bFGF (300 pM)-induced proliferation, mean and SEM, minimum 3 experiments, 1 μM, * not defined; for effect on bFGF-induced increase in pulmonary fibroblast cell number, in words: concentration range of 1 to 1000 nM, bFGF 300 pM, 48 h
Procedure: Samples of parenchyma from human lung transplant recipients were dissected away from the pleura, chopped into fragments of less than 1 mm^2 and allowed to adhere to plastic culture dishes in a minimal volume of DMEM containing serum (10%) and antibiotics (as used for HASM culture). After the tissue fragments had adhered to the base of the dish additional medium was added. Medium was changed twice weekly until an explant culture formed, at which time the tissue fragments were removed and the cells were passaged in a 1:3 split ratio by exposure to trypsin weekly to produce pulmonary fibroblast cultures.
Pulmonary fibroblasts were cultured in DMEM, serum-deprived for 24 h, in the presence or absence of the test compounds, and then stimulated with 300 pM bFGF for 48 h before harvest and counting of viable cells. An increase pulmonary fibroblast cell number was prevented by 4NOM over the concentration range of 1 to 1000 nM.
A range of the disclosed compounds was subsequently examined using the above assay system, and the results are summarized in Column E of Table 4. […] The proliferation of parenchymal fibroblasts is important in the development of pulmonary fibrosis.

[3] = test system: bovine aortic vascular smooth muscle; test: bFGF-induced proliferation of bovine aortic vascular smooth muscle; assay type: cell-based; conditions: 3 μM
Procedure: Experiments were also carried out with bovine aortic vascular smooth muscle with a more limited set of compounds.

[4] = test system: Human airway smooth muscle (HASM) cells; test: bFGF-induced proliferation of human airway smooth muscle (HASM) cells, cell number after 48 h; assay type: cell-based; conditions: bFGF 300 pM, mean ± SEM (n), without analogue 135.8 ± 3.7
Procedure: Human airway smooth muscle (HASM) cells were cultured from macroscopically normal bronchi (0.5-2 cm diameter) obtained from lung resection or heart-lung transplant specimens provided by the Alfred Hospital (Melbourne) according to methods published in detail previously (Fernandes et al., 1999).
Approximately 0.1 g of smooth muscle was stripped from the wall of the bronchus for each cell culture. Dissected tissue was immersed in Dulbecco's modified Eagle's medium (DMEM) (Flow Laboratories, Scotland), supplemented with 100 U/mL penicillin G (CSL, Australia) and 100 ug/mL streptomycin (CSL, Australia). The tissue was rinsed in phosphate buffered saline (PBS; Oxoid, England) and the airway smooth muscle was chopped into 2 mm^3 pieces and digested for 2 hours in DMEM containing elastase (0.5 mg/mL: Worthington Biochemical, USA) followed by a 12 hour incubation in DMEM containing collagenase (1 mg/mL) (Worthington Biochemical, USA), at 37° C. with agitation.
The resulting cell suspension was centrifuged and washed three times in phosphate buffered saline (PBS). Following the last centrifugation step, the cells were resuspended in 25 mL of DMEM supplemented with L-glutamine (2 mM: Sigma, USA), penicillin G (100 U/mL), streptomycin (100 μg/mL), amphotericin B (2 μg/mL: Wellcome, UK) and heat-inactivated FCS (10% v/v: CSL, Australia) and seeded into 25 cm^2 culture flasks. The primary isolates were incubated for 7 to 14 days to reach confluence.
Cells were harvested weekly by 10 min exposure to trypsin (0.5%: CSL, Australia) and EDTA (1 mM in PBS: BDH, Australia) and passaged at a 1:3 ratio into 75 cm^2 flasks.
The activity of the compounds has been established in cell culture by exploring their effects on mitogen-induced increases in cell number. […]
Data are expressed as a percentage of the cell number in vehicle treated wells and are presented as the mean and standard error of the mean.

[5] = test system: HASM cells; test: Shape of HASM cells in the presence of thrombin; assay type: cell-based, human; conditions: thrombin 0.3 U/mL, 48 h
Procedure: The effects of 2MEO and 4NOM on the shape of HASM in the presence thrombin (0.3 U/mL) was investigated. Analogues were pre-incubated with HASM for 30 min before the addition of thrombin. The incubation continued for 48 h before capturing images of the HASM.

[6] = test system: type II airway epithelial cell line, A549; test: Proliferation of A549 cells in response to 5% FCS; assay type: cell-based, human; conditions: for effect on proliferation of A549 cells, in words (FIG. 2): 5% FCS, 48 h; for A549 PIC50 / IC50: proliferation in response to 5% FCS, pIC50 of 4.00 = inactive; for IC50: Homo sapiens, A549, read-out: A549 PIC50 (converted)

| Compound | HASM - GM-CSF [1] | pFib - bFGF [2] | reduction of bFGF (300 pM) induced proliferation [3] | Cell number (% control) bFGF ([4]; analogue 10 μM) | effect on the shape of HASM cells ([5]; 10 μM) | effect on proliferation of A549 cells, in words (FIG. 2) ([6]; concentration not given) | A549 PIC50 [6] | reduction of GM-CSF production, in words (FIG. 7) ([1]; interleukin-1α 1 ng/ml) | effect on bFGF-induced increase in pulmonary fibroblast cell number, in words [2] | Cell number (% control) bFGF ([4]; analogue 1 μM) | effect on the shape of HASM cells ([5]; 1 μM) | effect on proliferation of A549 cells, in words (FIG. 2) ([6]; concentrations below 3 μM) | pFib - bFGF ([2]; listed as 4NOM) | IC50 [6] |
| --- | --- | --- | --- | --- | --- | --- | --- | --- | --- | --- | --- | --- | --- | --- |
| COc1cc2c(cc1O)CC[C@@H]1[C@@H]2CC[C@]2(C)[C@@H](O)CC[C@@H]12 [2-methoxyestradiol, reference compound] | 29 ± 10* | 62 ± 20* | 87±6% | 87.5 ± 13.8 (4) % control | caused extensive rounding of cells | effective inhibitor | 6.00 | – | – | – | – | – | – | – |
| COc1cc2c(cc1O)C(=NOCc1ccc([N+](=O)[O-])cc1)C[C@@H]1[C@@H]2CC[C@]2(C)[C@@H](O)CC[C@@H]12 [CP-DM-2-11-7, 2-methoxy-6-(4-nitrobenzyloxy)iminoestradiol] | 45 ± 8* | 63 ± 15* | 75±14% | – | – | – | 4.89 | reduced GM-CSF production to greater extent than 2MEO | significantly reduced the proliferative response | 116.6 ± 6.6 (14) % control | no detectable effects on the shape of the HASM cells | no detectable effect | – | – |
| COc1cc2c(cc1O)C(=NOCc1ccc([N+](=O)[O-])cc1)C[C@@H]1[C@@H]2CC[C@]2(C)C(=NO)CC[C@@H]12 [CP-DM-3-91, 2-methoxy-6-(4-nitrobenzyloxy)iminoestrone-17-oxime] | 43 ± 11* | 49 ± 14* | 93±4% | – | – | – | 4.99 | – | prevented | 111.1 ± 10.9 (4) % control | – | – | significant inhibitory activity | – |
| C[C@]12CC[C@@H]3c4ccc(O)cc4CC[C@H]3[C@@H]1CC/C2=N\OCc1cccc([N+](=O)[O-])c1 [CP-DM-3-102, estrone-17-(3-nitrobenzyl)oxime] | – | 96 ± 4* | – | – | – | – | – | – | – | – | – | – | – | 12.6 µM |
| COc1cc2c(cc1O)/C(=N/OCc1cc(F)cc(F)c1)C[C@@H]1[C@@H]2CC[C@]2(C)[C@@H](O)CC[C@@H]12 [CP-DM-4-35, 6-(3,5-difluorobenzyloxy)imino-2-methoxyestradiol] | – | 22 ± 14 | – | – | – | – | – | – | – | – | – | – | – | 3.16 µM |
| COc1cc2c(cc1O)/C(=N/OCc1ccc(SC(F)(F)F)cc1)C[C@@H]1[C@@H]2CC[C@]2(C)[C@@H](O)CC[C@@H]12 [CP-DM-4-65, 2-methoxy-6-(4-trifluoromethylthiobenzyloxy)iminoestradiol] | 28 ± 31 | 32 ± 23 | – | – | – | – | – | – | – | – | – | – | – | 3.16 µM |
